Legend:
[1] = The drug is tested on Bifidobacterium ruminantium strain: fecal isolate for biotransformation. The drug concentrations were measured before and after a 12-h incubation by liquid-chromatography-coupled mass spectrometry (LC–MS); conditions: 2 µM
[2] = The drug is tested on Alistipes indistinctus strain: DSM22520 for biotransformation. The drug concentrations were measured before and after a 12-h incubation by liquid-chromatography-coupled mass spectrometry (LC–MS); conditions: 2 µM
[3] = The drug is tested on Bacteroides caccae strain: ATCC43185 for biotransformation. The drug concentrations were measured before and after a 12-h incubation by liquid-chromatography-coupled mass spectrometry (LC–MS); conditions: 2 µM
[4] = The drug is tested on Bacteroides dorei strain: DSM17855 for biotransformation. The drug concentrations were measured before and after a 12-h incubation by liquid-chromatography-coupled mass spectrometry (LC–MS); conditions: phocaeicola dorei, 2 µM
[5] = The drug is tested on Bacteroides finegoldii strain: DSM17565 for biotransformation. The drug concentrations were measured before and after a 12-h incubation by liquid-chromatography-coupled mass spectrometry (LC–MS); conditions: 2 µM
[6] = The drug is tested on Bacteroides uniformis strain: ATCC8492 for biotransformation. The drug concentrations were measured before and after a 12-h incubation by liquid-chromatography-coupled mass spectrometry (LC–MS); conditions: 2 µM
[7] = The drug is tested on Anaerotruncus colihominis strain: DSM17241 for biotransformation. The drug concentrations were measured before and after a 12-h incubation by liquid-chromatography-coupled mass spectrometry (LC–MS); conditions: 2 µM
[8] = The drug is tested on Clostridium sp. strain: fecal isolate for biotransformation. The drug concentrations were measured before and after a 12-h incubation by liquid-chromatography-coupled mass spectrometry (LC–MS); conditions: 2 µM
[9] = The drug is tested on Enterococcus faecalis strain: V583 for biotransformation. The drug concentrations were measured before and after a 12-h incubation by liquid-chromatography-coupled mass spectrometry (LC–MS); conditions: 2 µM
[10] = The drug is tested on Subdoligranulum variabile strain: DSM15176 for biotransformation. The drug concentrations were measured before and after a 12-h incubation by liquid-chromatography-coupled mass spectrometry (LC–MS); conditions: 2 µM
[11] = bifidobacterium adolescentis, 12 h, 2 µM
Description: The drug is tested on Bifidobacterium adolescentis strain: ATCC 15703 for biotransformation. The drug concentrations were measured before and after a 12-h incubation by liquid-chromatography-coupled mass spectrometry (LC–MS)

[12] = bacteroides intestinalis, 12 h, 2 µM
Description: The drug is tested on Bacteroides intestinalis strain: DSM17393 for biotransformation. The drug concentrations were measured before and after a 12-h incubation by liquid-chromatography-coupled mass spectrometry (LC–MS)

[13] = parabacteroides distasonis, 12 h, 2 µM
Description: The drug is tested on Parabacteroides distasonis strain: ATCC8503 for biotransformation. The drug concentrations were measured before and after a 12-h incubation by liquid-chromatography-coupled mass spectrometry (LC–MS)

[14] = parabacteroides johnsonii, 12 h, 2 µM
Description: The drug is tested on Parabacteroides johnsonii strain: DSM18315 for biotransformation. The drug concentrations were measured before and after a 12-h incubation by liquid-chromatography-coupled mass spectrometry (LC–MS)

[15] = anaerostipes sp., 12 h, 2 µM
Description: The drug is tested on Anaerostipes sp. strain: fecal isolate for biotransformation. The drug concentrations were measured before and after a 12-h incubation by liquid-chromatography-coupled mass spectrometry (LC–MS)

[16] = roseburia intestinalis, 12 h, 2 µM
Description: The drug is tested on Roseburia intestinalis strain: L1-82 for biotransformation. The drug concentrations were measured before and after a 12-h incubation by liquid-chromatography-coupled mass spectrometry (LC–MS)

[17] = bacteroides thetaiotaomicron, 12 h, 2 µM
Description: The drug is tested on Bacteroides thetaiotaomicron strain: 7330 for biotransformation. The drug concentrations were measured before and after a 12-h incubation by liquid-chromatography-coupled mass spectrometry (LC–MS)

[18] = The drug is tested on Bacteroides coprophilus strain: DSM18228 for biotransformation. The drug concentrations were measured before and after a 12-h incubation by liquid-chromatography-coupled mass spectrometry (LC–MS); conditions: 2 µM
[19] = The drug is tested on Eubacterium rectale strain: ATCC33656 for biotransformation. The drug concentrations were measured before and after a 12-h incubation by liquid-chromatography-coupled mass spectrometry (LC–MS); conditions: agathobacter rectalis, 2 µM
[20] = The drug is tested on Eggerthella lenta strain: ATCC25559 for biotransformation. The drug concentrations were measured before and after a 12-h incubation by liquid-chromatography-coupled mass spectrometry (LC–MS); conditions: 2 µM

Compound	Bacterial Biotransformation [1]	Bacterial Biotransformation [2]	Bacterial Biotransformation [3]	Bacterial Biotransformation [4]	Bacterial Biotransformation [5]	Bacterial Biotransformation [6]	Bacterial Biotransformation [7]	Bacterial Biotransformation [8]	Bacterial Biotransformation [9]	Bacterial Biotransformation [10]	Bacterial Biotransformation [11]	Bacterial Biotransformation [12]	Bacterial Biotransformation [13]	Bacterial Biotransformation [14]	Bacterial Biotransformation [15]	Bacterial Biotransformation [16]	Bacterial Biotransformation [17]	Bacterial Biotransformation [18]	Bacterial Biotransformation [19]	Bacterial Biotransformation [20]
COc1c2occc2cc2ccc(=O)oc12 [METHOXSALEN]	Compound NOT metabolized	Compound NOT metabolized	Compound metabolized	Compound metabolized	Compound metabolized	Compound metabolized	Compound NOT metabolized	Compound metabolized	Compound NOT metabolized	Compound NOT metabolized	Compound NOT metabolized	Compound metabolized	Compound metabolized	Compound metabolized	Compound metabolized	Compound metabolized				
CC(C)(C)NCC(O)COc1cccc2c1CC(O)C(O)C2 (configuration not stated) [NADOLOL]			Compound NOT metabolized		Compound NOT metabolized	Compound NOT metabolized	Compound NOT metabolized	Compound NOT metabolized	Compound NOT metabolized		Compound NOT metabolized	Compound NOT metabolized		Compound NOT metabolized	Compound NOT metabolized	Compound NOT metabolized	Compound NOT metabolized			
O=C(NC(Cc1cc(=O)[nH]c2ccccc12)C(=O)O)c1ccc(Cl)cc1 (configuration not stated) [REBAMIPIDE]	Compound NOT metabolized	Compound NOT metabolized	Compound NOT metabolized	Compound metabolized	Compound NOT metabolized	Compound metabolized	Compound NOT metabolized	Compound NOT metabolized	Compound NOT metabolized	Compound NOT metabolized	Compound NOT metabolized	Compound NOT metabolized	Compound NOT metabolized	Compound NOT metabolized	Compound NOT metabolized	Compound NOT metabolized	Compound metabolized	Compound NOT metabolized	Compound NOT metabolized	
CC(C)(C)NC[C@H](O)COc1ccccc1C1CCCC1.CC(C)(C)NC[C@H](O)COc1ccccc1C1CCCC1.O=S(=O)(O)O [PENBUTOLOL SULFATE]		Compound NOT metabolized	Compound NOT metabolized		Compound NOT metabolized	Compound metabolized	Compound NOT metabolized	Compound metabolized	Compound NOT metabolized	Compound NOT metabolized	Compound NOT metabolized	Compound NOT metabolized	Compound NOT metabolized		Compound NOT metabolized	Compound NOT metabolized	Compound NOT metabolized		Compound NOT metabolized	
Cc1cc(C)cc(OCC2CNC(=O)O2)c1 (configuration not stated) [METAXALONE]	Compound NOT metabolized		Compound NOT metabolized	Compound metabolized		Compound metabolized	Compound NOT metabolized	Compound metabolized	Compound NOT metabolized		Compound NOT metabolized	Compound NOT metabolized	Compound metabolized		Compound NOT metabolized	Compound NOT metabolized			Compound NOT metabolized	Compound NOT metabolized
C=C[C@H]1CN2CC[C@H]1C[C@H]2[C@H](O)c1ccnc2ccc(OC)cc12.C=C[C@H]1CN2CC[C@H]1C[C@H]2[C@H](O)c1ccnc2ccc(OC)cc12.O.O.O=S(=O)(O)O [QUININE SULFATE]	Compound NOT metabolized		Compound NOT metabolized		Compound NOT metabolized	Compound NOT metabolized	Compound NOT metabolized		Compound NOT metabolized		Compound NOT metabolized	Compound NOT metabolized	Compound NOT metabolized	Compound NOT metabolized	Compound NOT metabolized	Compound NOT metabolized	Compound NOT metabolized	Compound NOT metabolized	Compound NOT metabolized	
CCN(CC)CCNC(=O)c1cc(S(C)(=O)=O)ccc1OC [TIAPRIDE]		Compound NOT metabolized	Compound NOT metabolized	Compound NOT metabolized	Compound NOT metabolized	Compound NOT metabolized	Compound NOT metabolized	Compound NOT metabolized	Compound NOT metabolized	Compound NOT metabolized	Compound NOT metabolized	Compound NOT metabolized	Compound NOT metabolized	Compound NOT metabolized	Compound NOT metabolized	Compound NOT metabolized	Compound NOT metabolized		Compound NOT metabolized	
C[C@@H]1C[C@H]2[C@@H]3CCC4=CC(=O)C=C[C@]4(C)[C@@]3(F)[C@@H](O)C[C@]2(C)[C@@]1(O)C(=O)CO [DEXAMETHASONE]		Compound NOT metabolized	Compound NOT metabolized	Compound metabolized	Compound NOT metabolized	Compound metabolized			Compound NOT metabolized		Compound NOT metabolized	Compound NOT metabolized	Compound NOT metabolized	Compound metabolized	Compound NOT metabolized			Compound NOT metabolized	Compound NOT metabolized	Compound NOT metabolized
COc1ccc(/C=C/C(=O)Nc2ccccc2C(=O)O)cc1OC				Compound NOT metabolized	Compound metabolized	Compound NOT metabolized	Compound NOT metabolized	Compound NOT metabolized	Compound NOT metabolized	Compound NOT metabolized	Compound NOT metabolized	Compound NOT metabolized	Compound NOT metabolized	Compound NOT metabolized	Compound NOT metabolized	Compound NOT metabolized		Compound NOT metabolized	Compound NOT metabolized	
